Test results published in ChEMBL document CHEMBL3046004, “Esterase-mediated resistance to pyrethroids in field populations of Helicoverpa armigera (Lepidoptera: Noctuidae) from Central Africa” (2009).

What was measured:
Assay type in all cases: functional
Helicoverpa armigera [1] = assay: Synergism factor, ratio of LD50 for fourth-instar larval stage of pyrethroid-resistance Helicoverpa armigera laboratory strain GS-RR08 to LD50 for fourth-instar larval stage of pyrethroid-resistance Helicoverpa armigera laboratory strain GS-RR08 in presence of 3.2 microg/larva propenofos
Helicoverpa armigera [2] = assay: Synergism factor, ratio of LD50 for fourth-instar larval stage of Helicoverpa armigera field strain Gaschiga isolated form hyptis plant to LD50 for fourth-instar larval stage of Helicoverpa armigera field strain Gaschiga isolated from hyptis plant in presence of 10 microg/larva cytochrome P450 monooxygenase inhibitor, PBO
Helicoverpa armigera [3] = assay: Synergism factor, ratio of LD50 for fourth-instar larval stage of Helicoverpa armigera field strain Ngong to LD50 for fourth-instar larval stage of Helicoverpa armigera field strain Ngong in presence of 10 microg/larva cytochrome P450 monooxygenase inhibitor, PBO
Helicoverpa armigera [4] = assay: Synergism factor, ratio of LD50 for Helicoverpa armigera field strain Guider to LD50 for fourth-instar larval stage of Helicoverpa armigera field strain Guider in presence of 10 microg/larva cytochrome P450 monooxygenase inhibitor, PBO
Helicoverpa armigera [5] = assay: Synergism factor, ratio of LD50 for fourth-instar larval stage of Helicoverpa armigera Foumbot to LD50 for fourth-instar larval stage of Helicoverpa armigera Foumbot in presence of 10 microg/larva cytochrome P450 monooxygenase inhibitor, PBO
Helicoverpa armigera [6] = assay: (§1) Synergism factor, ratio of LD50 for fourth-instar larval stage of pyrethroid-resistance Helicoverpa armigera field strain Pitoa isolated from tomato plant to LD50 for fourth-instar larval stage of Helicoverpa armigera field strain Pitoa isolated from tomato plant in presence of 10 microg/larva cytochrome P450 monooxygenase inhibitor, PBO
Helicoverpa armigera [7] = assay: as §1, with “of” for “of pyrethroid-resistance”, “maize” for “tomato”
Helicoverpa armigera [8] = assay: Synergism factor, ratio of LD50 for fourth-instar larval stage of Helicoverpa armigera field strain Home to LD50 for fourth-instar larval stage of Helicoverpa armigera field strain Home in presence of 10 microg/larva cytochrome P450 monooxygenase inhibitor, PBO
Helicoverpa armigera [9] = assay: Synergism factor, ratio of LD50 for fourth-instar larval stage of pyrethroid-resistance Helicoverpa armigera laboratory strain GS-RR06 to LD50 for fourth-instar larval stage of pyrethroid-resistance Helicoverpa armigera laboratory strain GS-RR06 in presence of 10 microg/larva cytochrome P450 monooxygenase inhibitor, PBO
Helicoverpa armigera [10] = assay: Insecticidal activity against fourth-instar larval stage of pyrethroid-resistance Helicoverpa armigera laboratory strain GS-RR08 assessed as mortality applied topically onto thorax measured after 48 hr in presence of 3.2 microg/larva […]
Helicoverpa armigera [11] = assay: Insecticidal activity against fourth-instar larval stage of Helicoverpa armigera field strain Gaschiga isolated from hyptis plant assessed as mortality applied topically onto thorax 30 min after 10 microg/larva cytochrome P450 monooxygenase inhibitor, PBO application measured after 48 hr
Helicoverpa armigera [12] = assay: Insecticidal activity against fourth-instar larval stage of Helicoverpa armigera field strain Ngong isolated from cotton plant assessed as mortality applied topically onto thorax 30 min after 10 microg/larva cytochrome P450 monooxygenase inhibitor, PBO application measured after 48 hr
Helicoverpa armigera [13] = assay: Insecticidal activity against fourth-instar larval stage of Helicoverpa armigera field strain Guider isolated from cotton plant assessed as mortality applied topically onto thorax 30 min after 10 microg/larva cytochrome P450 monooxygenase inhibitor, PBO application measured after 48 hr
Helicoverpa armigera [14] = assay: Insecticidal activity against fourth-instar larval stage of Helicoverpa armigera Foumbot isolated from tomato plant assessed as mortality applied topically onto thorax 30 min after 10 microg/larva cytochrome P450 monooxygenase inhibitor, PBO application measured after 48 hr
Helicoverpa armigera [15] = assay: Insecticidal activity against fourth-instar larval stage of Helicoverpa armigera field strain Pitoa isolated from tomato plant assessed as mortality applied topically onto thorax 30 min after 10 microg/larva cytochrome P450 monooxygenase inhibitor, PBO application measured after 48 hr
Helicoverpa armigera [16] = assay: Insecticidal activity against fourth-instar larval stage of Helicoverpa armigera field strain Pitoa isolated from maize plant assessed as mortality applied topically onto thorax 30 min after 10 microg/larva cytochrome P450 monooxygenase inhibitor, PBO application measured after 48 hr
Helicoverpa armigera [17] = assay: Insecticidal activity against fourth-instar larval stage of Helicoverpa armigera field strain Home isolated from cotton plant assessed as mortality applied topically onto thorax 30 min after 10 microg/larva cytochrome P450 monooxygenase inhibitor, PBO application measured after 48 hr
Helicoverpa armigera [18] = assay: Insecticidal activity against fourth-instar larval stage of pyrethroid-resistance Helicoverpa armigera laboratory strain GS-RR06 assessed as mortality applied topically onto thorax 30 min after 10 microg/larva cytochrome P450 monooxygenase inhibitor, PBO application measured after 48 hr
Helicoverpa armigera [19] = assay: Resistance factor, ratio of LD50 for fourth-instar larval stage of Helicoverpa armigera field strain Gaschiga isolated from hyptis plant to LD50 for fourth-instar larval stage of pyrethroid-susceptible Helicoverpa armigera laboratory strain BK-77
Helicoverpa armigera [20] = assay: Resistance factor, ratio of LD50 for fourth-instar larval stage of Helicoverpa armigera field strain Ngong to LD50 for fourth-instar larval stage of pyrethroid-susceptible Helicoverpa armigera laboratory strain BK-77
Helicoverpa armigera [21] = assay: Resistance factor, ratio of LD50 for fourth-instar larval stage of Helicoverpa armigera field strain Djalingo to LD50 for fourth-instar larval stage of pyrethroid-susceptible Helicoverpa armigera laboratory strain BK-77
Helicoverpa armigera [22] = assay: Resistance factor, ratio of LD50 for fourth-instar larval stage of Helicoverpa armigera field strain Guider to LD50 for fourth-instar larval stage of pyrethroid-susceptible Helicoverpa armigera laboratory strain BK-77
Helicoverpa armigera [23] = assay: Resistance factor, ratio of LD50 for fourth-instar larval stage of Helicoverpa armigera field strain Mokong to LD50 for fourth-instar larval stage of pyrethroid-susceptible Helicoverpa armigera laboratory strain BK-77
Helicoverpa armigera [24] = assay: Resistance factor, ratio of LD50 for fourth-instar larval stage of Helicoverpa armigera Foumbot to LD50 for fourth-instar larval stage of pyrethroid-susceptible Helicoverpa armigera laboratory strain BK-77
Helicoverpa armigera [25] = assay: Insecticidal activity against fourth-instar larval stage of Helicoverpa armigera field strain Guider isolated from cotton plant assessed as mortality applied topically onto thorax measured after 48 hr
Helicoverpa armigera [26] = assay: Insecticidal activity against fourth-instar larval stage of Helicoverpa armigera field strain Mokong isolated from cotton plant assessed as mortality applied topically onto thorax measured after 48 hr
Helicoverpa armigera [27] = assay: Insecticidal activity against fourth-instar larval stage of Helicoverpa armigera Foumbot isolated from tomato plant assessed as mortality applied topically onto thorax measured after 48 hr
Helicoverpa armigera [28] = assay: Insecticidal activity against fourth-instar larval stage of Helicoverpa armigera field strain Pitoa isolated from maize plant assessed as mortality applied topically onto thorax measured after 48 hr
Helicoverpa armigera [29] = assay: Insecticidal activity against fourth-instar larval stage of Helicoverpa armigera field strain Sorga isolated from cotton plant assessed as mortality applied topically onto thorax measured after 48 hr
Helicoverpa armigera [30] = assay: Insecticidal activity against fourth-instar larval stage of Helicoverpa armigera field strain Tchollire isolated from cotton plant assessed as mortality applied topically onto thorax measured after 48 hr
Helicoverpa armigera [31] = assay: Insecticidal activity against fourth-instar larval stage of Helicoverpa armigera field strain Home isolated from cotton plant assessed as mortality applied topically onto thorax measured after 48 hr
Helicoverpa armigera [32] = assay: Insecticidal activity against fourth-instar larval stage of pyrethroid-resistance Helicoverpa armigera laboratory strain GS-RR08 assessed as mortality applied topically onto thorax measured after 48 hr
Helicoverpa armigera [33] = assay: Insecticidal activity against fourth-instar larval stage of pyrethroid-resistance Helicoverpa armigera laboratory strain GS-RR06 assessed as mortality applied topically onto thorax measured after 48 hr
Helicoverpa armigera [34] = assay: Insecticidal activity against fourth-instar larval stage of pyrethroid-susceptible Helicoverpa armigera laboratory strain BK-77 assessed as mortality applied topically onto thorax measured after 48 hr
Helicoverpa armigera [35] = assay: Resistance factor, ratio of LD50 for fourth-instar larval stage of Helicoverpa armigera field strain Tchollire to LD50 for fourth-instar larval stage of pyrethroid-susceptible Helicoverpa armigera laboratory strain BK-77
Helicoverpa armigera [36] = assay: Resistance factor, ratio of LD50 for fourth-instar larval stage of Helicoverpa armigera field strain Pitoa isolated from maize plant to LD50 for fourth-instar larval stage of pyrethroid-susceptible Helicoverpa armigera laboratory strain BK-77
Helicoverpa armigera [37] = assay: Resistance factor, ratio of LD50 for fourth-instar larval stage of Helicoverpa armigera field strain Sorga to LD50 for fourth-instar larval stage of pyrethroid-susceptible Helicoverpa armigera laboratory strain BK-77
Helicoverpa armigera [38] = assay: Resistance factor, ratio of LD50 for fourth-instar larval stage of Helicoverpa armigera field strain Home to LD50 for fourth-instar larval stage of pyrethroid-susceptible Helicoverpa armigera laboratory strain BK-77
Helicoverpa armigera [39] = assay: Resistance factor, ratio of LD50 for fourth-instar larval stage of pyrethroid-resistance Helicoverpa armigera laboratory strain GS-RR08 to LD50 for fourth-instar larval stage of pyrethroid-susceptible Helicoverpa armigera laboratory strain BK-77
Helicoverpa armigera [40] = assay: Resistance factor, ratio of LD50 for fourth-instar larval stage of pyrethroid-resistance Helicoverpa armigera laboratory strain GS-RR06 to LD50 for fourth-instar larval stage of pyrethroid-susceptible Helicoverpa armigera laboratory strain BK-77
Helicoverpa armigera [41] = assay: Insecticidal activity against fourth-instar larval stage of Helicoverpa armigera field strain Gaschiga isolated from hyptis plant assessed as mortality applied topically onto thorax measured after 48 hr
Helicoverpa armigera [42] = assay: Insecticidal activity against fourth-instar larval stage of Helicoverpa armigera field strain Djalingo isolated from cotton plant assessed as mortality applied topically onto thorax measured after 48 hr
Helicoverpa armigera [43] = assay: Insecticidal activity against fourth-instar larval stage of Helicoverpa armigera field strain Ngong isolated from cotton plant assessed as mortality applied topically onto thorax measured after 48 hr
Helicoverpa armigera [44] = assay: Resistance factor, ratio of LD50 for fourth-instar larval stage of Helicoverpa armigera field strain Gaschiga isolated from tomato plant to LD50 for fourth-instar larval stage of pyrethroid-susceptible Helicoverpa armigera laboratory strain BK-77
Helicoverpa armigera [45] = assay: Insecticidal activity against fourth-instar larval stage of Helicoverpa armigera field strain Pitoa isolated from tomato plant assessed as mortality applied topically onto thorax measured after 48 hr
Helicoverpa armigera [46] = assay: Resistance factor, ratio of LD50 for fourth-instar larval stage of Helicoverpa armigera field strain Pitoa isolated from tomato plant to LD50 for fourth-instar larval stage of pyrethroid-susceptible Helicoverpa armigera laboratory strain BK-77
Helicoverpa armigera [47] = assay: Insecticidal activity against fourth-instar larval stage of Helicoverpa armigera field strain Gaschiga isolated from tomato plant assessed as mortality applied topically onto thorax measured after 48 hr

## CC1(C)C(C=C(Cl)Cl)C1C(=O)OC(C#N)c1cccc(Oc2ccccc2)c1 (stereo not drawn) [ALPHA-CYPERMETHRIN]
Helicoverpa armigera [1]
  Ratio: 3.7
Helicoverpa armigera [2]
  Ratio: 25
Helicoverpa armigera [3]
  Ratio: 37.5
Helicoverpa armigera [4]
  Ratio: 3.6
Helicoverpa armigera [5]
  Ratio: 1.3
Helicoverpa armigera [6]
  Ratio: 5
Helicoverpa armigera [7]
  Ratio: 8.3
Helicoverpa armigera [8]
  Ratio: 2.1
Helicoverpa armigera [9]
  Ratio: 1.5
Helicoverpa armigera [10]
  LD50: 226.6 microgAi/g
Helicoverpa armigera [11]
  LD50: 1.8 microgAi/g
Helicoverpa armigera [12]
  LD50: 3 microgAi/g
Helicoverpa armigera [13]
  LD50: 8.8 microgAi/g
Helicoverpa armigera [14]
  LD50: 63 microgAi/g
Helicoverpa armigera [15]
  LD50: 53.2 microgAi/g
Helicoverpa armigera [16]
  LD50: 28.9 microgAi/g
Helicoverpa armigera [17]
  LD50: 21.3 microgAi/g
Helicoverpa armigera [18]
  LD50: 480.3 microgAi/g
Helicoverpa armigera [19]
  Ratio: 96
Helicoverpa armigera [20]
  Ratio: 240
Helicoverpa armigera [21]
  Ratio: 194
Helicoverpa armigera [22]
  Ratio: 67
Helicoverpa armigera [23]
  Ratio: 152
Helicoverpa armigera [24]
  Ratio: 174
Helicoverpa armigera [25]
  LD50: 31.6 microgAi/g
Helicoverpa armigera [26]
  LD50: 71.5 microgAi/g
Helicoverpa armigera [27]
  LD50: 81.6 microgAi/g
Helicoverpa armigera [28]
  LD50: 239.9 microgAi/g
Helicoverpa armigera [29]
  LD50: 57.7 microgAi/g
Helicoverpa armigera [30]
  LD50: 48 microgAi/g
Helicoverpa armigera [31]
  LD50: 43.9 microgAi/g
Helicoverpa armigera [32]
  LD50: 832.5 microgAi/g
Helicoverpa armigera [33]
  LD50: 718.4 microgAi/g
Helicoverpa armigera [34]
  LD50: 0.5 microgAi/g
Helicoverpa armigera [35]
  Ratio: 102
Helicoverpa armigera [36]
  Ratio: 510
Helicoverpa armigera [37]
  Ratio: 123
Helicoverpa armigera [38]
  Ratio: 93
Helicoverpa armigera [39]
  Ratio: 1771
Helicoverpa armigera [40]
  Ratio: 1529
Helicoverpa armigera [41]
  LD50: 45 microgAi/g
Helicoverpa armigera [42]
  LD50: 91.5 microgAi/g
Helicoverpa armigera [43]
  LD50: 112.6 microgAi/g

## Clc1ccc(C(c2ccc(Cl)cc2)C(Cl)(Cl)Cl)cc1 [CHLOROPHENOTHANE]
Helicoverpa armigera [44]
  Ratio: 1.4
Helicoverpa armigera [20]
  Ratio: 1.4
Helicoverpa armigera [45]
  LD50: 34.8 microgAi/g
Helicoverpa armigera [28]
  LD50: 48.9 microgAi/g
Helicoverpa armigera [30]
  LD50: 26.7 microgAi/g
Helicoverpa armigera [33]
  LD50: 26.1 microgAi/g
Helicoverpa armigera [34]
  LD50: 24.3 microgAi/g
Helicoverpa armigera [46]
  Ratio: 1.3
Helicoverpa armigera [35]
  Ratio: 1
Helicoverpa armigera [36]
  Ratio: 1.9
Helicoverpa armigera [40]
  Ratio: 1
Helicoverpa armigera [47]
  LD50: 37.4 microgAi/g
Helicoverpa armigera [43]
  LD50: 36.8 microgAi/g

## O=S1OCC2C(CO1)C1(Cl)C(Cl)=C(Cl)C2(Cl)C1(Cl)Cl (configuration not stated) [ENDOSULFAN]
Helicoverpa armigera [44]
  Ratio: 0.7
Helicoverpa armigera [20]
  Ratio: 0.1
Helicoverpa armigera [45]
  LD50: 36.2 microgAi/g
Helicoverpa armigera [28]
  LD50: 37.9 microgAi/g
Helicoverpa armigera [33]
  LD50: 27.5 microgAi/g
Helicoverpa armigera [34]
  LD50: 37.6 microgAi/g
Helicoverpa armigera [46]
  Ratio: 1
Helicoverpa armigera [36]
  Ratio: 1
Helicoverpa armigera [40]
  Ratio: 0.7
Helicoverpa armigera [47]
  LD50: 25.9 microgAi/g
Helicoverpa armigera [43]
  LD50: 34 microgAi/g
